# Laboratory results: patent US7115622B2, “Amido ether substituted imidazoquinolines” (3M Innovative Properties Company, priority 2000, dated 2006)
# Columns and labels:
# [1] = test system: tumor necrosis factor (α); assay: Cytokine Induction in Human Cells: tumor necrosis factor induction in PBMC; type: cell-based; conditions: 18 to 24 hours incubation, tested 30–0.014 μM, ELISA or IGEN assay, read-out: Lowest Effective Concentration (μM) Tumor Necrosis Factor
# From the text: (§1) An in vitro human blood cell system is used to assess cytokine induction. Activity is based on the measurement of interferon and tumor necrosis factor (α) (IFN and TNF, respectively) secreted into culture media as described by Testerman et. al. In “Cytokine Induction by the Immunomodulators Imiquimod and S-27609”, Journal of Leukocyte Biology, 58, 365–372 (September, 1995).
# (§2) Whole blood from healthy human donors is collected by venipuncture into EDTA vacutainer tubes. Peripheral blood mononuclear cells (PBMC) are separated from whole blood by density gradient centrifugation using Histopaque®-1077. Blood is diluted 1:1 with Dulbecco's Phosphate Buffered Saline (DPBS) or Hank's Balanced Salts Solution (HBSS). The PBMC layer is collected and washed twice with DPBS or HBSS and resuspended at 4×10^6 cells/mL in RPMI complete. The PBMC suspension is added to 48 well flat bottom sterile tissue culture plates (Costar, Cambridge, Mass. or Becton Dickinson Labware, Lincoln Park, N.J.) containing an equal volume of RPMI complete media containing test compound.
# (§3) The compounds are solubilized in dimethyl sulfoxide (DMSO). The DMSO concentration should not exceed a final concentration of 1% for addition to the culture wells. The compounds are generally tested at concentrations ranging from 30–0.014 μM.
# (§4) The solution of test compound is added at 60 μM to the first well containing RPMI complete and serial 3 fold dilutions are made in the wells. The PBMC suspension is then added to the wells in an equal volume, bringing the test compound concentrations to the desired range (30–0.014 μM). The final concentration of PBMC suspension is 2×10^6 cells/mL. The plates are covered with sterile plastic lids, mixed gently and then incubated for 18 to 24 hours at 37° C. in a 5% carbon dioxide atmosphere.
# (§5) Following incubation the plates are centrifuged for 10 minutes at 1000 rpm (˜200×g) at 4° C. The cell-free culture supernatant is removed with a sterile polypropylene pipet and transferred to sterile polypropylene tubes. Samples are maintained at −30 to −70° C. until analysis. The samples are analyzed for interferon (α) by ELISA and for tumor necrosis factor (α) by ELISA or IGEN Assay
# Tumor necrosis factor (α) (TNF) concentration is determined using ELISA kits available from Biosource International, Camarillo, Calif. Alternately, the TNF concentration can be determined by Origen® M-Series Immunoassay and read on an IGEN M-8 analyzer from IGEN International, Gaithersburg, Md. The immunoassay uses a human TNF capture and detection antibody pair from Biosource International, Camarillo, Calif. Results are expressed in pg/mL.
# (§6) The table below lists the lowest concentration found to induce interferon and the lowest concentration found to induce tumor necrosis factor for each compound.
# [2] = test system: interferon (α); assay: Cytokine Induction in Human Cells: interferon induction in PBMC; type: cell-based; set-up: key to Lowest Effective Concentration (μM) Interferon: *: no induction was seen at any of the tested concentrations; generally the highest concentration tested was 10 or 30 μM; conditions: 18 to 24 hours incubation, tested 30–0.014 μM, ELISA; for minimal effective concentration: read-out: Lowest Effective Concentration (μM) Interferon
# From the text: as §1, §2, §3, §4, §5
# Interferon (α) and Tumor Necrosis Factor (α) Analysis by ELISA Interferon (α) concentration is determined by ELISA using a Human Multi-Species kit from PBL Biomedical Laboratories, New Brunswick, N.J. Results are expressed in pg/mL.
# as §6
melting point,Compound,minimal effective concentration [1],minimal effective concentration [2],Lowest Effective Concentration (μM) Interferon [2]
93.5 to 97 °C,"COCCc1nc2c(N)nc3ccccc3c2n1CCOCCN(C)C(=O)c1ccccc1 [Example 8, N-(2-{2-[4-amino-2-(2-methoxyethyl)-1H-imidazo[4,5-c]quinolin-1-yl]ethoxy}ethyl)-N-methylbenzamide]",,,
83 to 87 °C,"COCCc1nc2c(N)nc3c(c2n1CCOCCN(C)C(=O)c1ccccc1)CCCC3 [Example 10, N-(2-{2-[4-amino-2-(2-methoxyethyl)-6,7,8,9-tetrahydro-1H-imidazo[4,5-c]quinolin-1-yl]ethoxy}ethyl)-N-methylbenzamide]",,,
184 to 187 °C,"COCCc1nc2c(N)nc3ccccc3c2n1CCOCCNC(=O)c1ccccc1 [Example 4, N-(2-{2-[4-amino-2-(2-methoxyethyl)-1H-imidazo[4,5-c]quinolin-1-yl]ethoxy}ethyl)benzamide]",,,
141 to 143 °C,"COCCc1nc2c(N)nc3c(c2n1CCOCCNC(=O)c1ccccc1)CCCC3 [Example 6, N-(2-{2-[4-amino-2-(2-methoxyethyl)-6,7,8,9-tetrahydro-1H-imidazo[4,5-c]quinolin-1-yl]ethoxy}ethyl)benzamide]",,,
,CCC(COCCC1CCN(C(=O)C2CCCC2)CC1)n1cnc2c(N)nc3ccccc3c21 (centres unmarked) [Example 37],1 µM,1 µM,
,COc1cccc(C(=O)NCCOCCn2cnc3c(N)nc4ccccc4c32)c1 [Example 59],10 µM,10 µM,
,CCCCc1nc2c(N)nc3ccccc3c2n1CCOCCNC(=O)c1cccc(OC)c1 [Example 26],10 µM,1 µM,
154 to 156 °C,"CCOCc1nc2c(N)nc3ccccc3c2n1CCOCCNC(=O)c1ccccc1 [Example 72, N-(2-{2-[4-amino-2-(ethoxymethyl)-1H-imidazo[4,5-c]quinolin-1-yl]ethoxy}ethyl)benzamide]",,,
,CCC(COCCC1CCN(C(=O)C2CC2)CC1)n1cnc2c(N)nc3ccccc3c21 (centres unmarked) [Example 35],1 µM,0.1 µM,
,CCC(COCCC1CCN(C(=O)Cc2ccccc2)CC1)n1cnc2c(N)nc3ccccc3c21 (centres unmarked) [Example 39],10 µM,1 µM,
,CCCCc1nc2c(N)nc3ccccc3c2n1CCOCCNC(=O)c1ccc(OC(F)(F)F)cc1 [Example 34],10 µM,,*
,CCCCc1nc2c(N)nc3ccccc3c2n1CCOCCNC(=O)c1ccc(F)cc1 [Example 21],10 µM,1 µM,
,CCCCc1nc2c(N)nc3ccccc3c2n1CCOCCNC(=O)c1ccc(OC)cc1 [Example 27],10 µM,1 µM,
,CCCCC(=O)NCCOCCn1c(CCCC)nc2c(N)nc3ccccc3c21 [Example 16],1 µM,0.1 µM,
,CCCCC(=O)N1CCC(CCOCC(CC)n2cnc3c(N)nc4ccccc4c32)CC1 (centres unmarked) [Example 36],1 µM,1 µM,
188 to 191 °C,"CCc1nc2c(N)nc3ccccc3c2n1CCOCCNC(=O)c1ccccc1 [Example 71, N-{2-[2-(4-amino-2-ethyl-1H-imidazo[4,5-c]quinolin-1-yl)ethoxy]ethyl}benzamide]",,,
